Measured values from patent US20200278355A1, “CONJUGATED PROTEINS AND USES THEREOF” (THE SCRIPPS RESEARCH INSTITUTE, priority 2017, published 2020).

Target: T1, TXN2 (Homo sapiens, UniProt Q99757)
T1 construct: H460 cells or H460 cells expressing luciferase in a 10 cm plate were incubated with indicated compounds; endogenous in cells; host or cells: H460
Assay: isoTOP-ABPP of compound-treated H460 cells: TXN2
Type: cell-based
Conditions: TXN2 C90; 40 μM
Description: For analysis of NR0B1 ligands or control compound reactivity, H460 cells or H460 cells expressing luciferase in a 10 cm plate were incubated with indicated compounds in serum/dye-free RPMI for 3 hours at 37° C. Cells were washed once ice-cold PBS and lysed in 1% Triton X-100 dissolved in PBS with protease inhibitors (Sigma) by sonication. Samples were clarified by centrifugation for 10 min at 16,000×g. Lysate was adjusted to 1.5 mg ml^−1 in 500 μL.
Samples were labeled for 1 h at ambient temperature with 100 μM iodoacetamide alkyne (1, IA-alkyne, 5 μL of 10 mM stock in DMSO). Samples were conjugated by copper-catalyzed azide-alkyne cycloaddition (CuAAC) to isotopically labeled, TEV-cleavable tags (TEV-tags). Heavy CuAAC reaction mixtures was added to the DMSO-treated or shGFP control samples and light CuAAC reaction mixture was added to compound-treated or shNRF2 samples. The CuAAC reaction mixture consisted of TEV tags (light or heavy, 10 μL of 5 mM stocks in DMSO, final concentration=100 μM), 1 mM tris(2-carboxyethyl)phosphine hydrochloride (TCEP; fresh 50× stock in water, final concentration=1 mM), ligand (17× stock in DMSO:t-butanol 1:4, final concentration=100 μM) and 1 mM CuSO4 (50× stock in water, final concentration=1 mM). The samples were allowed to react for 1 h at which point the samples were centrifuged (16,000×g, 5 min, 4° C.). […]

T1 sequence (Q99757 60-166): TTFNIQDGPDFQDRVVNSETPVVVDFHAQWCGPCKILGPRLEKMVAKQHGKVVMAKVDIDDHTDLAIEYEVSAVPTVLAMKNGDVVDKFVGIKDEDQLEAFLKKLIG

`O=C(c1ccc(N2CCOCC2)cc1)N1CCCC(N(Cc2ccccc2)C(=O)CCl)CC1` (stereo not shown) [BPK-29, N-benzyl-2-chloro-N-(1-(4-morpholinobenzoyl)azepan-4-yl)acetamide] was tested, and the “BPK-29-competed isoTOP-ABPP analysis” value was “Yes (Competed defined as showing R value ≥ 3.0 at 40 μM of test compound)”.
